How the values were obtained:
[1] = target: T1, human topoisomerase II (Homo sapiens, UniProt P11388); assay: Mammalian Topoisomerase II Inhibition Assay (DNA-topo II complex formation); assay type: biochemical; settings: EC50 = concentration with activity equal to EC50 of reference mAMSA; read-out: TopoII Inh. EC50
T1 construct: Topo II was purified from late log phase suspension cultures of HeLa WIS; endogenous in cells; host or cells: HeLa WIS suspension cultures, late log phase (enzyme purified from the cells)
T1 sequence (P11388 whole entry): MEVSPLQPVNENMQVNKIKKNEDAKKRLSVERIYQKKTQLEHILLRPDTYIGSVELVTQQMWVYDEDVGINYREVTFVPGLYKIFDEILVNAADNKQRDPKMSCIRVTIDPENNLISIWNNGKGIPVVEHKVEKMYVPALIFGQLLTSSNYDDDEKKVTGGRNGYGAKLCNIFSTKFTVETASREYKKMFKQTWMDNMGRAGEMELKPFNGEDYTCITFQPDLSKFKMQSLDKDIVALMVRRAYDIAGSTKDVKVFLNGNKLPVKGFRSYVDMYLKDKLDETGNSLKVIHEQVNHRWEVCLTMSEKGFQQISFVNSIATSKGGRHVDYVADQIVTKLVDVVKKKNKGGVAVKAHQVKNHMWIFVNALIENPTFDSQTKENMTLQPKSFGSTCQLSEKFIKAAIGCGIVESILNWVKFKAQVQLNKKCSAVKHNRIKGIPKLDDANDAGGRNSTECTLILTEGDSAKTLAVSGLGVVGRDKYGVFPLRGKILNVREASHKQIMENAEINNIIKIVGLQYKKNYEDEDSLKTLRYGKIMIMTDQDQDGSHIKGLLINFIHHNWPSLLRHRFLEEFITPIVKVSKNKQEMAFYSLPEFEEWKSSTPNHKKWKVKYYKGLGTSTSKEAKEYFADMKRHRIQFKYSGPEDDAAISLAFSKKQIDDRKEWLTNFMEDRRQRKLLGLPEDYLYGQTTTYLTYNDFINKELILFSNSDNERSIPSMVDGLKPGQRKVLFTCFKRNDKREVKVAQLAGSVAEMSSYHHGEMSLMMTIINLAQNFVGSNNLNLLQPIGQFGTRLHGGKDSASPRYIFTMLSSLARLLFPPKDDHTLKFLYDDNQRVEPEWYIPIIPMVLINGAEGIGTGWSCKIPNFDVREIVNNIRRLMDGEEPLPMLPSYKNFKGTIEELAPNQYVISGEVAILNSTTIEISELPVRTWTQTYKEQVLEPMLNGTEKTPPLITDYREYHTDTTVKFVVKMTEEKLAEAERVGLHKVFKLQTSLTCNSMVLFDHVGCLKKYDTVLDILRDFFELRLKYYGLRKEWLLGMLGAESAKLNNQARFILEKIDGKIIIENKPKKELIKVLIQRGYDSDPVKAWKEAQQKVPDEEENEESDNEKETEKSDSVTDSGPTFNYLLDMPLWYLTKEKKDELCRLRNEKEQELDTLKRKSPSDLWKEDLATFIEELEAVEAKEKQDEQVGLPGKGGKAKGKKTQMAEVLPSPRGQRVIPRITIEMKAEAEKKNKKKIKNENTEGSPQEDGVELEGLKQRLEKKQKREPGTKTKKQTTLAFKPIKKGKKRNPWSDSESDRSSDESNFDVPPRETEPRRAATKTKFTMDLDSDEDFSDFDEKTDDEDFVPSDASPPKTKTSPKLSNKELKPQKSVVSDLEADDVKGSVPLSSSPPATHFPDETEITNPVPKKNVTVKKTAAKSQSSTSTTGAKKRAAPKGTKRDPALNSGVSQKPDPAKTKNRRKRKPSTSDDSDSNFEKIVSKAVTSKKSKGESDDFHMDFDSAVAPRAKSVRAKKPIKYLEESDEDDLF
Description: Mammalian Topoisomerase II Inhibition Assay Procedure
The assay quantitates the amount of topo II covalently complexed by DNA at equilibrium during a topo II reaction. This assay determines the potential of a compound to stabilize this complex, which potential is closely related to the cytotoxicity of the compound.
Assays (in duplicate) were assembled at 4° C.
4 ng 3' end labeled (^32 P) pBR322 DNA (10^7 DMP/μg)
The assay mix including the test compound was incubated for 20 minutes at 37° C. The reaction was terminated at 37° C. by the addition of 3 μl 10% SDS followed by the addition of 266 μl 10 mM Tris-Cl pH 7.5, 20 μg/ml BSA, 20 μg/ml calf thymus DNA, 1% SDS.
A SDS/protein precipitate was formed by the addition of 28 μl 2.5M KCl followed by chilling on ice for a minimum of 10 minutes. The precipitate was collected and washed with a Brandell cell harvester on a GFB glass fiber filter membrane as follows. The contents of the assay tube were drawn up into the harvester. The tube was then rinsed 7X with 10 mM Tris-Cl pH 7.5, 1 mM EDTA and 100 mM KCl. […] After drying, CPM was determined by liquid scintillation counting with 5 ml Biofluor (NEN Research Products) or Readisafe (Beckman Instruments Inc.) cocktail.
This solution then was diluted 1/5 into water and serially thereafter in either 0.02N sodium hydroxide or 0.04N hydrogen chloride, respectively. The stock solution and serial dilution of the test compound was stored at -20° C. prior to testing.
Screening of test compound--As an initial screen, the test compound was tested at a final concentration of 2, 20 and 200 μg/ml. The compound was then retested at a range of concentrations (usually 2-3X steps) bridging their approximate EC50 's, as estimated by the prescreen.
Controls--A solvent control which indicates the base level of topo II-DNA complex formed in the absence of the test compound was included in each test. A control, in which topo II was omitted, was included for each test compound at the highest drug concentration tested.
Reference Agent--A dose response curve with mAMSA at 0.01, 0.08, 0.16, 0.32, 1.0 and 10 μg/ml was included in each test.
The maximal DNA-topo II complex formed is taken as that equal to that formed at the nearly saturating dose of mAMSA (10 μg/ml).

[2] = tested on: P388 murine leukemia cells; assay: Malignant cell cytotoxicity, one-hour exposure (clonogenic survival in soft agar); assay type: cell-based; settings: Mus musculus, 1 hr exposure, read-out: IC50 P388 1 hr. exp.
Description: (§1) Examples of compound I having Topo II activity were tested for malignant cell cytotoxicity. In vitro cytotoxicity was assayed by determining cell survival following exposure of P388 murine leukemia cells to a range of test compound concentrations. Cytotoxicity was quantitated following either a one-hour exposure or continuous exposure of P388 cells to test compound.
(§2) Cytotoxicity following a one-hour exposure of cells to drug was assayed by quantitating clonogenic cell survival according to a published procedure [Freshney, R. L. (1987) Culture of Animal Cells. A Manual of Basic Technique. Wiley-Liss Inc., New York, N.Y., pp. 140-144]. Briefly, following drug exposure cells were plated in soft agar and incubated (37°, 5% CO2) for 7-10 days during which time viable cells form visible colonies. Cytotoxicity following continuous exposure of cells to test compound was assayed by quantitating total P388 cells on a Coultier Counter following a 48-hour co-incubation of test compound with cells. P388 cells were maintained in log phase throughout the duration of cytotoxicity assays.
(§3) The percentage of cells surviving relative to an untreated control was graphed as a function of increasing drug concentration.

[3] = tested on: P388 murine leukemia cells; assay: Malignant cell cytotoxicity, continuous 48-hour exposure (Coulter Counter); assay type: cell-based; settings: Mus musculus, read-out: IC50 P388 cont. exp.
Description: as §1, §2, §3

Row | SMILES | EC50 [1] | IC50 [2] | IC50 [3]
1 | Cc1cc(-c2c(F)cc3c(=O)c(Cc4c(O)cccc4O)cn(C4CC4)c3c2F)cc(C)n1 [Example 26, 1-Cyclopropyl-6,8-difluoro-7-[2,6-dimethyl-4-pyridinyl]-3-[2,6-dihydroxyphenylmethyl]-1,4-dihydroquinoline-4-one] | 96 nM | 250 nM | 55 nM
2 | Cc1cc(-c2c(F)cc3c(=O)c(Cc4ccccc4O)cn(C4CC4)c3c2F)cc(C)n1 [Example 30] | 330 nM | 670 nM | 290 nM
3 | Cc1cc(-c2c(F)cc3c(=O)c(Cc4ccc(O)cc4O)cn(C4CC4)c3c2F)cc(C)n1 [Example 33] | – | 210 nM | 61 nM
